From publication PMC6106730, “The hemicellulose-degrading enzyme system of the thermophilic bacterium Clostridium stercorarium: comparative characterisation and addition of new hemicellulolytic glycoside hydrolases” (Biotechnology for Biofuels, 2018)

How the values were obtained:
[1] = biological target: T1, Xyn10D (Thermoclostridium stercorarium, UniProt L7VM99); assay: HPAEC-PAD of hydrolysis products; type: biochemical; conditions: 20 mg/L oligosaccharide, 2 mg/L enzyme, overnight, 60 °C, pH 6.5
T1 construct: gene Cst_c07550; no signal peptide predicted; C-terminal His6 tag, pET-24c(+), E. coli BL21 Star; IMAC and heat step
T1 sequence (L7VM99 entry or part of it): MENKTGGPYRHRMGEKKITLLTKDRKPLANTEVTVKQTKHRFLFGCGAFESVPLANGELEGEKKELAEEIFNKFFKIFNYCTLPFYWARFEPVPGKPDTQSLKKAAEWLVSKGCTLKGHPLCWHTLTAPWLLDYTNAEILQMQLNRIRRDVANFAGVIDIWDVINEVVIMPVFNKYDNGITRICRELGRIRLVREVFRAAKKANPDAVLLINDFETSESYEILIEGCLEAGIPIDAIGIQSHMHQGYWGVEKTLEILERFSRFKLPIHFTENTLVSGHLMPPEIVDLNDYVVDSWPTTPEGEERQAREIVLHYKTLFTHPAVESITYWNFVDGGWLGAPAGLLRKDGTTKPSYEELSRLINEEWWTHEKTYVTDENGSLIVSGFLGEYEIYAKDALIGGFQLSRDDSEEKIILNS

[2] = biological target: T2, Xyn105F (Thermoclostridium stercorarium, UniProt L7VMZ8); assay: HPAEC-PAD of hydrolysis products; type: biochemical; conditions: 20 mg/L oligosaccharide, 2 mg/L enzyme, overnight, 60 °C, pH 6.5
T2 construct: gene Cst_c10410; no signal peptide predicted; C-terminal His6 tag, pET-24c(+), E. coli BL21 Star; IMAC and heat step
T2 sequence (L7VMZ8 entry or part of it): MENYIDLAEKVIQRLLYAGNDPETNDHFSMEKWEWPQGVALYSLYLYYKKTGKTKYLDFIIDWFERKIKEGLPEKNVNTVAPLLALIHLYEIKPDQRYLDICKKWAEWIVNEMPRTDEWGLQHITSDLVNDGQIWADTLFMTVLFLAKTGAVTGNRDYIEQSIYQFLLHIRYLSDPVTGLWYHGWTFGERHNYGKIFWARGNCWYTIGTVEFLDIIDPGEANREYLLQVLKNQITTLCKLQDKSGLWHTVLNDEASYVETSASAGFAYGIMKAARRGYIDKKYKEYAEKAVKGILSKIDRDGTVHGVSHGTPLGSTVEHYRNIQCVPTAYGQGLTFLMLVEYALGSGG

## OC1OC[C@@H](O[C@@H]2OC[C@@H](O[C@@H]3OC[C@@H](O[C@@H]4OC[C@@H](O[C@@H]5OC[C@@H](O)[C@H](O)[C@H]5O)[C@H](O)[C@H]4O)[C@H](O)[C@H]3O)[C@H](O)[C@H]2O)[C@H](O)[C@H]1O (some centres unmarked) [X5, xylopentaose]
[1]
  HPAEC-PAD of hydrolysis products: All five xylanases degraded xylopentaose first to xylotriose and xylobiose
[2]
  HPAEC-PAD of hydrolysis products: Xyn105F was also active on xylopentaose, releasing xylose and xylobiose
